The values that follow come from publication PMC11944513, “Investigation on Human Carbonic Anhydrase IX and XII Inhibitory Activity and A549 Antiproliferative Activity of a New Class of Coumarinamides” (Pharmaceuticals, 2025).

Data set [1] has as its target h-CA I (Homo sapiens, UniProt P00915). As to the kind of experiment: stopped-flow CO2 hydrase assay, h-CA I.
Data set [2] addresses h-CA XII (Homo sapiens, UniProt O43570). Put plainly: stopped-flow CO2 hydrase assay, h-CA XII.
In data set [3] the test system is normal bronchial epithelial cells (BEAS-2B). Put plainly: cell viability (MTT assay), BEAS-2B. It counts as cell-based, human. The following applies: for IC50: Homo sapiens, BEAS-2B, 48 h exposure, nonlinear regression, predictive estimates. As to the method: Human bronchial epithelial (BEAS-2B; CRL-3588) and human lung carcinoma (A549; CCL-185) cell lines were obtained from ATCC®. BEAS and A549 cells were maintained in complete RPMI 1640 (Merck, Darmstadt, Germany) at 37 °C and 5% CO2. The medium was supplemented with 10% heat-inactivated fetal bovine serum (FBS), 1% penicillin/streptomycin and 1% sodium pyruvate.
(§1) Cells were seeded at different densities according to the different experimental techniques performed (MTT assay and cell cycle analysis) and left to adhere for 24 h. Next, the medium was removed, and cells were treated with tested compounds, dissolved in dimethyl sulfoxide (DMSO) to achieve concentrations ranging from 0 µM (untreated control = CTRL) to 150 µM. The final DMSO concentration was kept below 0.3%. Cell viability was evaluated at up to 72 h post-treatment. Images were acquired 48 h after treatments by means of a light phase-contrast microscope equipped with a camera (Leica). Images were acquired and analyzed by the Leica Application Suite LAS EZ version 3.4 (Leica, Wetzlar, Germany).
(§2) BEAS and A549 cells were seeded in 96-well culture-treated plates (Falcon®, Corning Incorporated, Brooklyn, NY, USA) at a density of 0.5 × 10^4 cells/well. Untreated cells were set as the experimental control, representing 100% of cell viability. Exposure times varied from 24 up to 72 h. At the established time points (24, 48 and 72 h), the exposure medium was replaced with fresh medium containing 0.5 mg/mL 3-(4,5-dimethylthiazol-2-yl)-2,5-diphenyltetrazolium bromide (MTT) (Merck, Darmstadt, Germany) and processed as previously reported. The optical density in each well was measured at a wavelength of 540 nm using a spectrophotometer (Thermo Fisher Scientific, Waltham, MA, USA). Each experiment was performed in triplicate per experimental conditions (n = 3).

In data set [4] the target is h-CA II (Homo sapiens, UniProt P00918). Put plainly: stopped-flow CO2 hydrase assay, h-CA II.
In data set [5] the target is h-CA IX (Homo sapiens, UniProt Q16790). As to the kind of experiment: stopped-flow CO2 hydrase assay, h-CA IX. The following applies: for selectivity on h-CA IX over h-CA XII (in words): comparison of Ki values.
For data set [6], the system named is bronchial adenocarcinoma cells (A549). Put plainly: cell viability (MTT assay), A549. It counts as cell-based, human. The following applies: for IC50: Homo sapiens, A549, 48 h exposure, nonlinear regression, predictive estimates. As to the method:
The medium was supplemented with 10% heat-inactivated fetal bovine serum (FBS), 1% penicillin/streptomycin and 1% sodium pyruvate.
Cells were seeded at different densities according to the different experimental techniques performed (MTT assay and cell cycle analysis) and left to adhere for 24 h. […] The final DMSO concentration was kept below 0.3%. Cell viability was evaluated at up to 72 h post-treatment. Images were acquired 48 h after treatments by means of a light phase-contrast microscope equipped with a camera (Leica). Images were acquired and analyzed by the Leica Application Suite LAS EZ version 3.4 (Leica, Wetzlar, Germany).
as §2

The test system of data set [7] is A549 cells. As to the kind of experiment: cytotoxicity assay (LDH test). The following applies: 24 h; for LDH released, fold increase respective to untreated cells: A549, 150 µM. Type of data set: cell-based, human. Here is the method: as §1
To assess cytotoxicity in A549 cells after their treatment with the tested compounds, the amount of lactate dehydrogenase released into the culture medium was quantified using the CytoTox 96 non-radioactive cytotoxicity assay (Promega, Madison, WI, USA) according to the manufacturer’s instructions. Cell supernatants were collected from the same cultures processed for the MTT assay after 24 h of treatment and the optical density values obtained were normalized to those measured from the MTT assay.
On the technique in general: LDH leaks from cells whose membrane has failed.

The subject of data set [8] is A549 cells. Put plainly: cell cycle analysis (PI flow cytometry). Type of data set: cell-based, human. The following applies: A549, 0–150 µM, 48 h; S phase cells increased vs untreated control. Here is the method: as §1
[…] At each time point, cells were detached using StemPro™ Accutase™, pelleted by centrifugation, and fixed overnight at 4 °C in 70% v/v cold ethanol. After fixation, cells were processed as described elsewhere. The PI fluorescence was detected by a flow cytometer equipped with a 488 nm laser (CytoFlex flow cytometer, Beckman Coulter, CA, USA) in the FL-3 channel. A minimum of 10,000 events/sample were acquired and analyzed with the CytExpert Software, version 2.3 (Beckman Coulter, CA, USA), and the percentages of cells in the G1, S, or G2 phase of the cell cycle were calculated using the ModFit LT™ Software, version 5.0 (Verity Software House, Topsham, ME, USA).
On the technique in general: Flow cytometry measures light scatter and fluorescence of single cells or particles in a stream.

h-CA I, sequence (P00915 whole entry): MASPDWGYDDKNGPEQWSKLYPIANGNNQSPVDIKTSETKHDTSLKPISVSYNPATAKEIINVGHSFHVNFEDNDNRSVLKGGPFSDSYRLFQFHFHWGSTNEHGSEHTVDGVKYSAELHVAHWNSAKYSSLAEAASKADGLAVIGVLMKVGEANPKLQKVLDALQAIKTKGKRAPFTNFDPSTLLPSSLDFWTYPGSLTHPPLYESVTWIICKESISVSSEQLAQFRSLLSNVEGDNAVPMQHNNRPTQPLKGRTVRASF
h-CA XII, sequence (O43570 25-354): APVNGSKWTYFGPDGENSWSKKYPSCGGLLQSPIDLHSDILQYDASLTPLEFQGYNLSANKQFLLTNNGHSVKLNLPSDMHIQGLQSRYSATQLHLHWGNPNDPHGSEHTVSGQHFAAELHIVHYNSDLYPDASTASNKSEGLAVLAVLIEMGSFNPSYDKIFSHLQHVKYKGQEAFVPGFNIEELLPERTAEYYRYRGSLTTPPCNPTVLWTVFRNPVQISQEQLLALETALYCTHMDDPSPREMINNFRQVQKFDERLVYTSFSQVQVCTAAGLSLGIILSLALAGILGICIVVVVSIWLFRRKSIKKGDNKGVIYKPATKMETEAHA

For the molecule `O=C(NCc1ccccc1)c1cc2ccc(O)cc2oc1=O` [Compound 4, N-Benzyl-7-Hydroxy-2-Oxo-2H-Chromene-3-Carboxamide], the Ki (in general, a measure of affinity in units of concentration, obtained from inhibition or displacement) was over 100 µM in data set [1], 7.5 µM in data set [2], over 100 µM in data set [4] and 42.2 µM in data set [5]. In addition, the IC50 (commonly the point on the concentration scale where inhibition reaches its midpoint) in data set [3] is 344.9 ± 3.14 µM.

In the case of `Cc1ccccc1CNC(=O)c1cc2ccc(O)cc2oc1=O` [Compound 5, 7-Hydroxy-N-(2-Methylbenzyl)-2-Oxo-2H-Chromene-3-Carboxamide], the Ki was over 100 µM in data set [1], 35.5 µM in data set [2], over 100 µM in data set [4] and 25.4 µM in data set [5]. In addition, the “SI (selectivity index, IC50 BEAS/IC50 A549 ratio)” value in data set [6] (48 h) is 0.730. For the same molecule, the IC50 was 248.2 ± 1.57 µM in data set [6] and 181.2 ± 1.2 µM in data set [3].

As to `Cc1cccc(CNC(=O)c2cc3ccc(O)cc3oc2=O)c1` [Compound 6, 7-Hydroxy-N-(3-Methylbenzyl)-2-Oxo-2H-Chromene-3-Carboxamide], the Ki in data set [1] was over 100 µM; in data set [2], 9.3 µM; in data set [4], over 100 µM; in data set [5], 82.5 µM. The “SI (selectivity index, IC50 BEAS/IC50 A549 ratio)” value in data set [6] (48 h) is 1.309. Moreover, the IC50 in data set [6] was 90 ± 1.07 µM; in data set [3], 117.9 ± 1.08 µM.

For `Cc1ccc(CNC(=O)c2cc3ccc(O)cc3oc2=O)cc1` [Compound 7, 7-Hydroxy-N-(4-Methylbenzyl)-2-Oxo-2H-Chromene-3-Carboxamide], the Ki in data set [1] is over 100 µM; in data set [2], 8.8 µM; in data set [4], over 100 µM; in data set [5], 33.7 µM. In addition, the IC50 was 85.8 ± 1.13 µM in data set [6] and 157.8 ± 1.07 µM in data set [3]. Also, the “LDH released, fold increase respective to untreated cells” value in data set [7] is given as about 2 fold.

On to `COc1ccc(CNC(=O)c2cc3ccc(O)cc3oc2=O)cc1` [Compound 9, 7-Hydroxy-N-(4-Methoxylbenzyl)-2-Oxo-2H-Chromene-3-Carboxamide], for which the Ki in data set [1] was over 100 µM; in data set [2] it was 9.1 µM; in data set [4] it was over 100 µM; in data set [5] it was 53.8 µM. Moreover, the IC50 is 68.2 ± 1.11 µM in data set [6] and 116 ± 1.22 µM in data set [3]. In data set [7], the “LDH released, fold increase respective to untreated cells” value is about 3 fold.

In the case of `O=C(NCc1ccccc1Cl)c1cc2ccc(O)cc2oc1=O` [Compound 19, N-(2-Chlorobenzyl)-7-Hydroxy-2-Oxo-2H-Chromene-3-Carboxamide], the Ki in data set [1] was over 100 µM; in data set [2], 64.9 µM; in data set [4] it was over 100 µM; in data set [5], 19.3 µM. The “SI (selectivity index, IC50 BEAS/IC50 A549 ratio)” value in data set [6] (48 h) came to 1.271. Moreover, the IC50 in data set [6] is 32 ± 1.22 µM; in data set [3] it was 40.7 ± 1.1 µM. Further, the “selectivity on h-CA IX over h-CA XII (in words)” value (“selectivity on h-CA IX” for short) in data set [5] is “about three times more active on h-CA IX”.

Regarding `O=C(NCc1ccc(Cl)cc1Cl)c1cc2ccc(O)cc2oc1=O` [Compound 22, N-(2,4-Dichlorobenzyl)-7-Hydroxy-2-Oxo-2H-Chromene-3-Carboxamide], the Ki in data set [1] was over 100 µM; in data set [2], 84.1 µM; in data set [4], over 100 µM; in data set [5], 22 µM. Moreover, in data set [6] (48 h), the “SI (selectivity index, IC50 BEAS/IC50 A549 ratio)” value amounted to 1.150. The IC50 is 83.3 ± 1.08 µM in data set [6] and 95.8 ± 1.07 µM in data set [3].

Consider `O=C(NCc1ccc(Cl)c(Cl)c1)c1cc2ccc(O)cc2oc1=O` [Compound 23, N-(3,4-Dichlorobenzyl)-7-Hydroxy-2-Oxo-2H-Chromene-3-Carboxamide], for which the Ki is over 100 µM in data set [1], 21 µM in data set [2], over 100 µM in data set [4] and 46.2 µM in data set [5]. Moreover, the “arrest of cell cycle progression” value in data set [8] is “able to arrest cells at the G1/S checkpoint”. The results for the IC50 in data set [6] and in data set [3] were 39.5 ± 1.06 µM and 73.4 ± 1.1 µM, respectively. Also, the “cytotoxicity occurrence (LDH release)” value in data set [7] (A549, 0–150 µM) is on record as “None of the compounds administered displayed cytotoxicity”.

As for `O=C(NCCc1ccccc1Cl)c1cc2ccc(O)cc2oc1=O` [Compound 29, N-(2-Chlorophenethyl)-7-Hydroxy-2-Oxo-2H-Chromene-3-Carboxamide], the Ki was over 100 µM in data set [1], 43.1 µM in data set [2], over 100 µM in data set [4] and 5.5 µM in data set [5]. Moreover, the “SI (selectivity index, IC50 BEAS/IC50 A549 ratio)” value in data set [6] (48 h) worked out at 1.386. The IC50 in data set [6] is 55.9 ± 1.12 µM; in data set [3], 77.5 ± 1.08 µM. Further, the “selectivity on h-CA IX” value in data set [5] was “good selectivity against h-CA IX over h-CA XII”.

Turning to `O=C(NCCc1cccc(Cl)c1)c1cc2ccc(O)cc2oc1=O` [Compound 30, N-(3-Chlorophenethyl)-7-Hydroxy-2-Oxo-2H-Chromene-3-Carboxamide], the Ki in data set [1] was over 100 µM; in data set [2], 55.8 µM; in data set [4] it was over 100 µM; in data set [5], 7.5 µM. The “SI (selectivity index, IC50 BEAS/IC50 A549 ratio)” value in data set [6] (48 h) is 1.465. The IC50 in data set [6] is 59.7 ± 1.07 µM; in data set [3], 87.4 ± 1.06 µM. The “selectivity on h-CA IX” value in data set [5] is “good selectivity against h-CA IX over h-CA XII”.

Consider `O=C(c1cc2ccc(O)cc2oc1=O)N1CCN(c2ccccc2)CC1` [Compound 32, 7-Hydroxy-3-(4-Phenylpiperazine-1-Carbonyl)-2H-Chromen-2-One], for which the inhibition constant (Ki) was over 100 µM in data set [1], 9.1 µM in data set [2], over 100 µM in data set [4] and 49.3 µM in data set [5]. For the same molecule, in data set [2] (ratio of Ki values), the “selectivity on h-CA XII over h-CA IX” value is reported as about 5 fold. Besides, in data set [6] (48 h), the “SI (selectivity index, IC50 BEAS/IC50 A549 ratio)” value turned out to be 2.547. Further, the results for the IC50 in data set [6] and in data set [3] were 156.9 ± 1.12 µM and 399.7 ± 1.68 µM, respectively.

Turning to `COc1ccc(N2CCN(C(=O)c3cc4ccc(O)cc4oc3=O)CC2)cc1` [Compound 44, 7-Hydroxy-3-(4-(4-Methoxyphenyl)piperazine-1-Carbonyl)-2H-Chromen-2-One], the Ki in data set [1] was over 100 µM; in data set [2] it was 22.5 µM; in data set [4] it was over 100 µM; in data set [5] it was 32.8 µM. The “SI (selectivity index, IC50 BEAS/IC50 A549 ratio)” value in data set [6] (48 h) is listed as 1.888. Further, the IC50 in data set [6] was 108 ± 1.28 µM; in data set [3] it was 203.5 ± 1.19 µM.

As to `O=C(c1cc2ccc(O)cc2oc1=O)N1CCN(c2ccc(C(F)(F)F)cc2)CC1` [Compound 45, 3-(4-(4-Trifluoromethylphenyl)piperazine-1-Carbonyl)-7-Hydroxy-2H-Chromen-2-One], the Ki in data set [1] is over 100 µM; in data set [2], 8.4 µM; in data set [4] it was over 100 µM; in data set [5] it was 22.6 µM. Besides, in data set [6] (48 h), the “SI (selectivity index, IC50 BEAS/IC50 A549 ratio)” value worked out at 2.096. The IC50 in data set [6] is 25.7 ± 1.14 µM; in data set [3], 53.9 ± 1.07 µM.

Regarding `COc1cccc2c1C(=O)c1c(O)c3c(c(O)c1C2=O)C[C@@](O)(C(=O)CO)C[C@@H]3O[C@H]1C[C@H](N)[C@H](O)[C@H](C)O1` [doxorubicin, reference compound], the “cell viability of A549 cells” value in data set [6] (1 µM, 48 h) was “dramatically decreased”. Besides, the “cell viability of BEAS cells” value in data set [3] (1 µM, 48 h) is “dramatically decreased”.
